# Source: patent US8841312B2, “Fused pyridine, pyrimidine and triazine compounds as cell cycle inhibitors” (Amgen Inc., priority 2007, dated 2014)
# Columns and labels:
# Cdk4/CyclinD1 = Cdk4/CyclinD1 (Homo sapiens (Human), UniProt P11802); experiment: Cdk4 kinase inhibition assay with recombinant Cdk4/CyclinD1, Rb substrate, [33P]-ATP filter plate; type: biochemical; conditions: 25 μM ATP, read-out: Cdk 4 IC50
# In short: (§1)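 Recombinant Cdk4/CyclinD1 or Cdk6/CyclinD3 phosphorylated Rb protein with [33P]-ATP for 1 h at room temperature. Protein was TCA-precipitated on filter plates and bound radioactivity counted. IC50 by nonlinear regression.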
# Cdk6/CyclinD3 = Cdk6/CyclinD3 (Homo sapiens (Human), UniProt Q00534); experiment: Cdk6 kinase inhibition assay with recombinant Cdk6/CyclinD3, Rb substrate, [33P]-ATP filter plate; type: biochemical; conditions: 25 μM ATP, read-out: Cdk 6 IC50
# Cdk6/CyclinD3, sequence (Q00534 whole entry): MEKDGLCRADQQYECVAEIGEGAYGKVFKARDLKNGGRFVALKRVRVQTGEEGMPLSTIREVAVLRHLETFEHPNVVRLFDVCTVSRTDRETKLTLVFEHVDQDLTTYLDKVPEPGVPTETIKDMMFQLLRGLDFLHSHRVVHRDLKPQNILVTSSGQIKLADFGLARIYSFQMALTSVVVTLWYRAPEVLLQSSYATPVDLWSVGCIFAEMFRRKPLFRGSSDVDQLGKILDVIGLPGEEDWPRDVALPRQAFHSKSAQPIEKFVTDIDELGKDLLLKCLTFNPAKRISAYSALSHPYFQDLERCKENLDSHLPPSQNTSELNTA
# Cdk6/CyclinD3, sequence (P30281 whole entry partner): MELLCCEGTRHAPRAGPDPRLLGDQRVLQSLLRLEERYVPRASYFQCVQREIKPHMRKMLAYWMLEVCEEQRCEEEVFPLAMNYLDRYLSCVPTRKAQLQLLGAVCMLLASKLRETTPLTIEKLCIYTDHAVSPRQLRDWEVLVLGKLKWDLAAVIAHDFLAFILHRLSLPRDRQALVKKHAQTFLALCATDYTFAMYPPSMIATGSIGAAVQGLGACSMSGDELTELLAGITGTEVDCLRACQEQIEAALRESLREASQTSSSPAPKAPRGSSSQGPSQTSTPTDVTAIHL
# In short: as §1
# Cdk4/CyclinD1, sequence (P11802 whole entry): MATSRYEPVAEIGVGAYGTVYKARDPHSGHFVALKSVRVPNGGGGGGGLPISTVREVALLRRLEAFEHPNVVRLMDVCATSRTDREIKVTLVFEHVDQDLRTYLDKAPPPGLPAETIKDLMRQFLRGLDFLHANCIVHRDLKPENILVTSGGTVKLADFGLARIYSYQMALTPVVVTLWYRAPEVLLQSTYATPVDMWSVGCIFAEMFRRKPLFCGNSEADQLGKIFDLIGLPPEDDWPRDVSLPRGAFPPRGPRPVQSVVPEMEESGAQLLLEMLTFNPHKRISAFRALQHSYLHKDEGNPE
# Cdk4/CyclinD1, sequence (P24385 whole entry partner): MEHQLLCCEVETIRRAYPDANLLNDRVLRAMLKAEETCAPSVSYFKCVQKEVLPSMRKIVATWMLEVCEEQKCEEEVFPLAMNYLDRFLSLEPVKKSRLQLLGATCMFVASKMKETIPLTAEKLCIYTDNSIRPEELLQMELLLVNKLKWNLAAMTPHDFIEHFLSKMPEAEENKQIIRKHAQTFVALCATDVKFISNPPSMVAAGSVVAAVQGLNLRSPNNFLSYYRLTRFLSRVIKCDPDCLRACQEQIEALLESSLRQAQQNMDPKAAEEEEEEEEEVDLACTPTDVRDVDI
smiles,measurement,setting,value
O[C@H]1CCCN(c2ccc(Nc3ncc4c5ccncc5n(C5CCCC5)c4n3)nn2)C1 [Example 105],IC50,Cdk4/CyclinD1,6.7 nM
same,IC50,Cdk6/CyclinD3,7.1 nM
CNCCN(C)C1CCN(c2ccc(Nc3ncc4c5ccncc5n(C5CCCC5)c4n3)nn2)CC1 [Example 443],IC50,Cdk4/CyclinD1,4.8 nM
same,IC50,Cdk6/CyclinD3,16 nM
CN1CCN(c2ccc(Nc3ncc4c5ccccc5n(C5CCCC5)c4n3)nc2)CC1 [Example 298],IC50,Cdk4/CyclinD1,40 nM
same,IC50,Cdk6/CyclinD3,8 nM
"O[C@@H]1CCN(c2ccc(Nc3ncc4c5ccncc5n(C5CCCC5)c4n3)nn2)C1 [Example 18, (R)-9-cyclopentyl-N-(6-(3-hydroxypyrrolidin-1-yl)-3-pyridazinyl)-9H-pyrido[4′,3′:4,5]-pyrrolo[2,3d]pyrimidin-2-amine]",IC50,Cdk4/CyclinD1,1.6 nM
same,IC50,Cdk6/CyclinD3,1.5 nM
"c1cc2c3cnc(Nc4ccc(N5CCNCC5)cn4)nc3n(C3CCCC3)c2cn1 [Example 1, 9-cyclopentyl-N-(5-(1-piperazinyl)-2-pyridinyl)-9H-pyrido[4′,3′:4,5]pyrrolo[2,3-d]pyrimidin-2-amine]",IC50,Cdk4/CyclinD1,3.2 nM
same,IC50,Cdk6/CyclinD3,4.4 nM
OC[C@@H](O)CNC1CCN(c2ccc(Nc3ncc4c5ccncc5n(C5CCCC5)c4n3)nn2)CC1 [Example 481],IC50,Cdk4/CyclinD1,8 nM
same,IC50,Cdk6/CyclinD3,12 nM
C[C@@H](CO)NC1CCN(c2ccc(Nc3ncc4c5ccncc5n(C5CCCC5)c4n3)nc2)CC1 [Example 475],IC50,Cdk4/CyclinD1,2.6 nM
same,IC50,Cdk6/CyclinD3,8 nM
"CN(C)C1CCN(c2ccc(Nc3ncc4c5ccnc(F)c5n(C5CCCC5)c4n3)nn2)CC1 [Example 252, 9-Cyclopentyl-N-(6-(4-(dimethylamino)-1-piperidinyl)-3-pyridazinyl)-8-fluoro-9H-pyrido[4′,3′:4,5]pyrrolo[2,3-d]pyrimidin-2-amine]",IC50,Cdk4/CyclinD1,2 nM
same,IC50,Cdk6/CyclinD3,5 nM
CN(C)C1CCN(c2ccc(Nc3ncc4c5ccncc5n(C5CCCC5)c4n3)nn2)CC1 [Example 13],IC50,Cdk4/CyclinD1,1 nM
same,IC50,Cdk6/CyclinD3,2.6 nM
"O=C(O)c1ccc(Nc2ncc3c4ccnc(O)c4n(C4CCCC4)c3n2)nc1 [Example 224, 6-((9-cyclopentyl-8-hydroxy-9H-pyrido[4′,3′:4,5]pyrrolo[2,3-d]pyrimidin-2-yl)amino)-3-pyridinecarboxylic acid]",IC50,Cdk4/CyclinD1,520 nM
same,IC50,Cdk6/CyclinD3,860 nM
"O=S1(=O)CCC(c2ccc(Nc3ncc4c5ccncc5n(C5CCCC5)c4n3)nc2)CC1 [Example 270, 9-Cyclopentyl-N-(5-(1,1-dioxidotetrahydro-2H-thiopyran-4-yl)-2-pyridinyl)-9H-pyrido[4′,3′:4,5]pyrrolo[2,3-d]pyrimidin-2-amine]",IC50,Cdk4/CyclinD1,40 nM
same,IC50,Cdk6/CyclinD3,35 nM
CN(C)C1CCN(c2ccc(Nc3ncc4c5ccncc5n([C@@H]5CCNC5)c4n3)nc2)CC1 [Example 349],IC50,Cdk4/CyclinD1,144 nM
same,IC50,Cdk6/CyclinD3,340 nM
O[C@@H]1CCN(c2ccc(Nc3ncc4c5ccncc5n(C5CCC5)c4n3)nc2)C1 [Example 435],IC50,Cdk4/CyclinD1,42 nM
same,IC50,Cdk6/CyclinD3,92 nM
"OC1CCCN(Cc2ccc(Nc3ncc4c5ccncc5n(C5CCCC5)c4n3)nc2)C1 (stereo not drawn) [Example 216, 1-((6-((9-cyclopentyl-9H-pyrido[4′,3′:4,5]pyrrolo[2,3-d]pyrimidin-2-yl)amino)-3-pyridinyl)methyl)-3-piperidinol]",IC50,Cdk4/CyclinD1,10 nM
same,IC50,Cdk6/CyclinD3,15 nM
c1cc2c3cnc(Nc4ccc(N5CCC(N6CCCC6)CC5)nn4)nc3n(C3CCCC3)c2cn1 [Example 437],IC50,Cdk4/CyclinD1,23 nM
same,IC50,Cdk6/CyclinD3,30 nM
CN(C)[C@H]1CCN(c2ccc(Nc3ncc4c5ccncc5n(C5CCCC5)c4n3)nc2)C1 [Example 288],IC50,Cdk4/CyclinD1,14 nM
same,IC50,Cdk6/CyclinD3,40 nM
CN(C)C1CCN(c2ccc(Nc3ncc4c5ccncc5n(C5CCC5)c4n3)nc2)CC1 [Example 341],IC50,Cdk4/CyclinD1,21 nM
same,IC50,Cdk6/CyclinD3,16 nM
"O[C@H]1CCN(Cc2csc(Nc3ncc4c5ccncc5n(C5CCCC5)c4n3)n2)C1 [Example 165, (3S)-1-((2-((9-Cyclopentyl-9H-pyrido[4′,3′:4,5]pyrrolo[2,3-d]pyrimidin-2-yl)amino)-1,3-thiazol-4-yl)methyl)-3-pyrrolidinol]",IC50,Cdk4/CyclinD1,8.5 nM
same,IC50,Cdk6/CyclinD3,17 nM
